# From ChEMBL document CHEMBL6127076, “Scaffold hopping-driven optimization for the identification of NLRP3 inhibitors as potential gout therapeutics” (Eur J Med Chem, 2024)
# Active and inactive are the calls of the source.
# Legend:
# [1] = Inhibition of NLRP3 inflammasome pathway in human THP-1 cells assessed as inhibition of LPS/MSU-induced IL-1beta secretion
# [2] = Aqueous solubility of the compound in pH 7.4 PBS buffer; assay type: physicochemical
# [3] = Plasma stability in human plasma assessed as compound remaining measured after 5 mins; assay type: ADME, cell-free; details: read-out: Stability
# [4] = Plasma stability in human plasma assessed as compound remaining measured after 15 mins; assay type: ADME, cell-free; details: read-out: Stability
# [5] = Plasma stability in human plasma assessed as compound remaining measured after 30 mins; assay type: ADME, cell-free; details: read-out: Stability
# [6] = Plasma stability in human plasma assessed as compound remaining measured after 60 mins; assay type: ADME, cell-free; details: read-out: Stability
# [7] = Plasma stability in human plasma assessed as compound remaining measured after 120 mins; assay type: ADME, cell-free; details: read-out: Stability
# [8] = Plasma stability in human plasma assessed as half life; assay type: ADME, cell-free
# [9] = Plasma stability in human plasma assessed as compound remaining measured immediately; assay type: ADME, cell-free; details: read-out: Stability
# [10] = molecular target: T1, Cytochrome P450 1A2 (Homo sapiens, UniProt P05177); assay: Inhibition of CYP1A2 (unknown origin); assay type: ADME
# T1 sequence (P05177 whole entry): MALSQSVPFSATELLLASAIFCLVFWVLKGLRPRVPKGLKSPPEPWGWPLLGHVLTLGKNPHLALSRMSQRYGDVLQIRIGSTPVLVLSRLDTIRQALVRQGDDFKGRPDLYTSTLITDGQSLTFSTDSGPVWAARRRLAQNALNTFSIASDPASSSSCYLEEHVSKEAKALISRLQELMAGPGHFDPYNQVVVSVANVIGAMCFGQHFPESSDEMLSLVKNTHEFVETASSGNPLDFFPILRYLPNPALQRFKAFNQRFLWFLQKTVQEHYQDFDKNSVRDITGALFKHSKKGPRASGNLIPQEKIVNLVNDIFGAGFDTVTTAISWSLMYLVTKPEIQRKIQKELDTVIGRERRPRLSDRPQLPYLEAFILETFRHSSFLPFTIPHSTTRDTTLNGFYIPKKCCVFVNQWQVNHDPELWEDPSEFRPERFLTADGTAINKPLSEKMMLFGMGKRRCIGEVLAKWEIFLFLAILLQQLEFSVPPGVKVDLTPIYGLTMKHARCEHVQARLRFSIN
# [11] = molecular target: Cytochrome P450 2C9 (Homo sapiens, UniProt P11712); assay: Inhibition of CYP2C9 (unknown origin); assay type: ADME
# [12] = molecular target: Cytochrome P450 2C19 (Homo sapiens, UniProt P33261); assay: Inhibition of CYP2C19 (unknown origin); assay type: ADME
# [13] = molecular target: T2, Cytochrome P450 3A4 (Homo sapiens, UniProt P08684); assay: Inhibition of CYP3A4 (unknown origin) using midazolam as substrate; assay type: ADME
# [14] = molecular target: T2, Cytochrome P450 3A4; assay: Inhibition of CYP3A4 (unknown origin) using testosterone as substrate; assay type: ADME
# [15] = molecular target: Cytochrome P450 2D6 (Homo sapiens, UniProt P10635); assay: Inhibition of CYP2D6 (unknown origin); assay type: ADME
# [16] = tested on: HEK-293T; assay: Cytotoxicity against human HEK293T cells assessed as cell viability at 0.39 to 50 uM measured after 24 hrs by CCK8 assay; assay type: toxicity, cell-based; details: dose 0.39-50 µM
# [17] = tested on: THP-1-M; assay: Effect on ROS generation in Nigericin-induced human THP-1-M cells assessed as effect on increase in ROS generation by MitoSOX staining based confocal microscopic analysis; assay type: functional, cell-based
# [18] = tested on: THP-1-M; assay: Effect on mitochondrial damage in Nigericin-induced human THP-1-M cells by MitoTracker staining based confocal microscopic analysis; assay type: functional, cell-based
# [19] = tested on: BMDM; assay: Effect on NLPR3 expression in Nigericin-induced in C57BL/6J mouse BMDM cells at 3 to 30 uM by immunoblotting analysis; assay type: functional, cell-based; details: dose 3-30 µM
# [20] = tested on: BMDM; assay: Effect on pro-caspase 1 expression in Nigericin-induced in C57BL/6J mouse BMDM cells at 3 to 30 uM by immunoblotting analysis; assay type: functional, cell-based; details: dose 3-30 µM
# [21] = tested on: BMDM; assay: Effect on pro-IL-1beta expression in Nigericin-induced in C57BL/6J mouse BMDM cells at 3 to 30 uM by immunoblotting analysis; assay type: functional, cell-based; details: dose 3-30 µM
# [22] = tested on: BMDM; assay: Effect on ASC expression in Nigericin-induced in C57BL/6J mouse BMDM cells at 3 to 30 uM by immunoblotting analysis; assay type: functional, cell-based; details: dose 3-30 µM
# [23] = tested on: BMDM; assay: Effect on NEK7 expression in Nigericin-induced in C57BL/6J mouse BMDM cells at 3 to 30 uM by immunoblotting analysis; assay type: functional, cell-based; details: dose 3-30 µM
# [24] = tested on: Mus musculus; assay: Anti-inflammatory activity against MSU-induced peritonitis mouse model assessed as reduction in IL-1beta secretion in peritoneal cavity treated by gavage 30 mins before MSU induction measured after 6 hrs modeling by ELISA; assay type: functional, organism-based; details: dose 5-30 mg/kg, route po
# [25] = tested on: Mus musculus; assay: Anti-inflammatory activity against MSU-induced peritonitis mouse model assessed as reduction in IL-1beta secretion in peritoneal cavity at 30 mg/kg, treated by gavage 30 mins before MSU induction measured after 6 hrs modeling by ELISA; assay type: functional, organism-based; details: route po
# [26] = tested on: Mus musculus; assay: Anti-arthritis activity against MSU-induced arthritis mouse model assessed as decrease in von Frey pain threshold treated by gavage 30 mins before MSU induction measured for day 3 to day 7; assay type: functional, organism-based; details: dose 5-30 mg/kg, route po, time 3-7 day
# [27] = tested on: Mus musculus; assay: Anti-arthritis activity against MSU-induced arthritis mouse model assessed as decrease in decrease in swelling in joint treated by gavage 30 mins before MSU induction measured for 7 days; assay type: functional, organism-based; details: dose 5-30 mg/kg, route po, time 7.0 day
# [28] = tested on: HEK-293T; assay: Cytotoxicity against human HEK293T cells assessed as cell viability at 50 uM measured after 24 hrs by CCK8 assay; assay type: toxicity, cell-based
# Cytochrome P450 2D6, sequence (P10635 whole entry): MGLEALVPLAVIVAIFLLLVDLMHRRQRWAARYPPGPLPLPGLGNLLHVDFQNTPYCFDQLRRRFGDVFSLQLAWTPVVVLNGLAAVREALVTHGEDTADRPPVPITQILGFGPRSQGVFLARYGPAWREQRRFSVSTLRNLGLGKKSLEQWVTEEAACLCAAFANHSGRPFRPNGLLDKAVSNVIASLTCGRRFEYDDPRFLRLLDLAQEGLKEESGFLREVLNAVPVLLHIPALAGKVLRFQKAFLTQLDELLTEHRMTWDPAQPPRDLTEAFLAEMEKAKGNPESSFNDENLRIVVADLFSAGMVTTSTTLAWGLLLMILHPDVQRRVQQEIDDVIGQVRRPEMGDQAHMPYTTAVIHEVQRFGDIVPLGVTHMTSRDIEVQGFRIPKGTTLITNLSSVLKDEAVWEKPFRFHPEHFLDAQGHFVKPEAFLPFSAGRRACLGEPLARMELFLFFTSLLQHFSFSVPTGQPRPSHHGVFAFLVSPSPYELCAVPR
# Cytochrome P450 2C9, sequence (P11712 whole entry): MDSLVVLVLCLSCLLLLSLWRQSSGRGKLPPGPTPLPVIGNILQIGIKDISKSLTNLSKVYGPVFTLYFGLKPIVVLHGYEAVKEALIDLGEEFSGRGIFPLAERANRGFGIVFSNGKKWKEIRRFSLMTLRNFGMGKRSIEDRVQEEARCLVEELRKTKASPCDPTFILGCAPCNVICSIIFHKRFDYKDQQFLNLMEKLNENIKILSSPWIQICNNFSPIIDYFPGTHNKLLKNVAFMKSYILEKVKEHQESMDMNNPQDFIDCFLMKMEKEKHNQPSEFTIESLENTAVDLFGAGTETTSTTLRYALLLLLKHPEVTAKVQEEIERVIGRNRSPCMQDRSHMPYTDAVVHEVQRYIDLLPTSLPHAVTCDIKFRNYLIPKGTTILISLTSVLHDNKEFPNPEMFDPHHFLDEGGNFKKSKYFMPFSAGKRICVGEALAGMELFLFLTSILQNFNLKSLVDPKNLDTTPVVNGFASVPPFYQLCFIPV
# T2 sequence (P08684 whole entry): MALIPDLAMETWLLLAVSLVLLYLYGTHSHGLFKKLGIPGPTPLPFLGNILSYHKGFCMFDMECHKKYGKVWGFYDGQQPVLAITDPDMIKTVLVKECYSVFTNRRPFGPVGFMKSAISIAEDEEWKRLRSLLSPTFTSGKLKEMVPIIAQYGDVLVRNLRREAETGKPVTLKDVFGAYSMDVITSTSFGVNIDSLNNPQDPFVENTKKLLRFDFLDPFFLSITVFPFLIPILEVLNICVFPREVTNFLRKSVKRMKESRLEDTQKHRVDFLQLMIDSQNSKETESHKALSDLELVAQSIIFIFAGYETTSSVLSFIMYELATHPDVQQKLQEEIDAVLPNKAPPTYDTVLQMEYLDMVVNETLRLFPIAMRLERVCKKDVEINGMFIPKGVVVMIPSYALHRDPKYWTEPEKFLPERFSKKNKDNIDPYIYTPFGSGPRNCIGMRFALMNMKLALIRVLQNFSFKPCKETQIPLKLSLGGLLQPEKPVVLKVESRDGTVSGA
# Cytochrome P450 2C19, sequence (P33261 whole entry): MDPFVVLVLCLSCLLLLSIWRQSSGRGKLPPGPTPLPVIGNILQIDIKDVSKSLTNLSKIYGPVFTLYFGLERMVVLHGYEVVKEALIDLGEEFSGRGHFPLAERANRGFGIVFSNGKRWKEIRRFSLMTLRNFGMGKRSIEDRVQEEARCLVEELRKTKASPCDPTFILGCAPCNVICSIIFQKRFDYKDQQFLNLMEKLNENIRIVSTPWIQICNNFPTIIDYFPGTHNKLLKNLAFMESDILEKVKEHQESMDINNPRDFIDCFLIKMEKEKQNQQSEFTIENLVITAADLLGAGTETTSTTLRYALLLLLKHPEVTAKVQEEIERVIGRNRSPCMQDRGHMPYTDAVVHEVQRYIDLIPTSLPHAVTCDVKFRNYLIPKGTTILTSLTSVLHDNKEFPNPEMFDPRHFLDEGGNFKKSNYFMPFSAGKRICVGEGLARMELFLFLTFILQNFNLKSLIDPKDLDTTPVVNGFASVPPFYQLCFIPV
smiles,measurement,setting,value
COc1ccc(N2C(=O)C(C)(C)N(Cc3cccc(C(F)(F)F)c3)C2=S)cc1,IC50,[1],> 20 µM
C=C1C(=O)[C@]23[C@H](O)[C@H]1CC[C@H]2[C@@]12CO[C@]3(O)[C@@H](O)[C@@H]1C(C)(C)CC[C@@H]2O [ORIDONIN],IC50,[1],1.9 µM
COc1cccc(N2C(=O)C(C)(C)N(Cc3ccc(C)c(C)c3)C2=S)c1,IC50,[1],> 20 µM
Cc1ccc(CN2C(=S)N(c3ccc(C#N)c(C(F)(F)F)c3)C(=O)C2(C)C)cc1C,IC50,[1],> 20 µM
COc1ccc(N2C(=O)C(C)(C)N(Cc3cc(C(F)(F)F)ccc3C(F)(F)F)C2=S)cc1,IC50,[1],> 20 µM
CCCSc1ccc2nc(NC(=O)OC)[nH]c2c1 [ALBENDAZOLE],solubility,[2],1.65 µM
COc1ccc(N2C(=O)C(C)(C)N(Cc3ccccc3C(F)(F)F)C2=S)cc1,IC50,[1],29.2 µM
Cc1ccc(CN2C(=S)N(c3cccc(OCc4ccccc4)c3)C(=O)C2(C)C)cc1C,IC50,[1],> 20 µM
COc1ccc(N2C(=O)C(C)(C)N(Cc3ccc(C)cc3)C2=S)cc1,IC50,[1],> 20 µM
COc1ccc(N2C(=O)/C(=C/c3ccccc3C(F)(F)F)SC2=S)cc1,solubility,[2],0.012 µM
same,remaining at 5 min,[3],112%
same,remaining at 0.25 h,[4],106%
same,remaining at 0.5 h,[5],23.9%
same,remaining at 1 h,[6],4.34%
same,remaining at 2 h,[7],3.67%
same,half-life,[8],0.338 h
same,remaining at 0 min,[9],100%
same,IC50,[10],5.2 µM
same,IC50,[11],4.65 µM
same,IC50,[12],6.87 µM
same,IC50,[13],> 10 µM
same,IC50,[14],> 10 µM
same,IC50,[15],> 10 µM
COc1ccccc1N1C(=O)C(C)(C)N(Cc2ccc(C)c(C)c2)C1=S,IC50,[1],> 20 µM
CC1(C)C(=O)N(c2ccc(C(F)(F)F)cc2)C(=S)N1Cc1ccc(S(N)(=O)=O)c(F)c1,IC50,[1],4.8 µM
same,Activity,[16],Non-Toxic
same,solubility,[2],53.7 µM
same,remaining at 5 min,[3],100%
same,remaining at 0.25 h,[4],99.5%
same,remaining at 0.5 h,[5],104%
same,remaining at 1 h,[6],103%
same,remaining at 2 h,[7],96.9%
same,remaining at 0 min,[9],100%
same,IC50,[10],> 100 µM
same,IC50,[11],> 10 µM
same,IC50,[12],> 10 µM
same,IC50,[13],> 10 µM
same,IC50,[14],> 10 µM
same,IC50,[15],> 10 µM
same,Activity,[17],inactive
same,Activity,[18],inactive
same,Activity,[19],inactive
same,Activity,[20],inactive
same,Activity,[21],inactive
same,Activity,[22],inactive
same,Activity,[23],inactive
same,Activity,[24],Dose-Dependent Effect
same,Activity,[25],Active
same,Activity,[26],Dose-Dependent Effect
same,Activity,[27],Dose-Dependent Effect
CC1(C)C(=O)N(c2cccnc2)C(=S)N1Cc1ccc(S(N)(=O)=O)c(F)c1,IC50,[1],> 20 µM
CC(C)(C)c1ccc(N2C(=O)C(C)(C)N(Cc3ccc(S(N)(=O)=O)c(F)c3)C2=S)cc1,IC50,[1],6.4 µM
same,Activity,[28],Toxic
same,solubility,[2],19.3 µM
same,remaining at 5 min,[3],96.7%
same,remaining at 0.25 h,[4],89.8%
same,remaining at 0.5 h,[5],98.2%
same,remaining at 1 h,[6],100%
same,remaining at 2 h,[7],82.5%
same,half-life,[8],10 h
same,remaining at 0 min,[9],100%
same,IC50,[10],> 100 µM
same,IC50,[11],> 10 µM
same,IC50,[12],> 10 µM
same,IC50,[13],> 10 µM
same,IC50,[14],> 10 µM
same,IC50,[15],> 10 µM
COc1ccc(N2C(=O)C(C)(C)N(Cc3ccc(C(F)(F)F)cc3)C2=S)cc1,IC50,[1],13 µM
CC1(C)C(=O)N(c2cc(C(F)(F)F)cc(C(F)(F)F)c2)C(=S)N1Cc1ccc(S(N)(=O)=O)c(F)c1,IC50,[1],8.3 µM
same,Activity,[28],Toxic
same,solubility,[2],14 µM
same,remaining at 5 min,[3],91.3%
same,remaining at 0.25 h,[4],98.8%
same,remaining at 0.5 h,[5],93.3%
same,remaining at 1 h,[6],100%
same,remaining at 2 h,[7],91.8%
same,remaining at 0 min,[9],100%
same,IC50,[10],> 100 µM
same,IC50,[11],10.2 µM
same,IC50,[12],> 10 µM
same,IC50,[13],> 10 µM
same,IC50,[14],> 10 µM
same,IC50,[15],> 10 µM
